Columns and labels:
Format in all cases: in vivo
[1] = test system: directly sowed rice plant; test: Test Example 3: effect on crop by foliage application, Wagner pot (symbol b); settings: application herbicide amount 320 g/ha
Outline: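 Greenhouse culture at 25–30 °C of seeded rice, Cyperus difformis, Leptochloa chinensis and Echinochloa crus-galli var. crus-galli, in alluvial soil held under 0.1–0.5 cm of water in a Wagner pot.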

rapeseed = test: Test Example 5: effect on crop by foliage application, plastic box (symbol g); settings: 320 g/ha, 3 weeks after application
Outline: (§1)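 Crop and weed seeds sown in spots in sterilized diluvial soil in plastic boxes and covered with about 1.5 cm soil. Plants raised in a greenhouse at 25° C. to 30° C. for foliar application.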

Amaranthus retroflexus = test: Test Example 4: herbicidal effect by soil treatment (symbol N); settings: application herbicide amount 320 g/ha
Outline: (§2)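 Seeds were sown in sterilized diluvial soil, covered with about 1.5 cm of soil, and the soil surface was sprayed with a water-diluted emulsion of the compound at a predetermined rate. Plants grew in a greenhouse at 25° C. to 30° C.; effects were scored visually 3 weeks after application.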

beet = test: Test Example 5: effect on crop by foliage application, plastic box (symbol f); settings: 320 g/ha, 3 weeks after application
Outline: as §1

Abutilon theophrasti [2] = test: Test Example 4: herbicidal effect by soil treatment (symbol M); settings: application herbicide amount 320 g/ha
Outline: as §2

transplanted rice plant = test: Test Example 1: effect on crop, application before weed generation in submerged conditions (symbol a); settings: application herbicide amount 320 g/ha
Outline: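 Alluvial soil pots flooded to 4 cm water, sown with Echinochloa oryzacola, Scirpus juncoides and Monochoria vaginalis, then transplanted with 2.5 leaf stage rice seedlings; pre-emergence application. Greenhouse 25° C. to 30° C.; scored 0–5 by herbicidal ratio 3 weeks after application.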

Stellaria media [3] = test: Test Example 4: herbicidal effect by soil treatment (symbol P); settings: application herbicide amount 320 g/ha
Outline: as §2

Abutilon theophrasti [4] = test: Test Example 5: herbicidal effect by foliage application, plastic box (symbol M); settings: 320 g/ha, 3 weeks after application
Outline: (§3)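 After sowing into sterilized diluvial soil and growing two weeks under glass at 25° C. to 30° C., seedlings receive a uniform foliar spray of diluted emulsion. Damage is judged visually three weeks on.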

Stellaria media [5] = test: Test Example 5: herbicidal effect by foliage application, plastic box (symbol P); settings: 320 g/ha, 3 weeks after application
Outline: as §3

Digitaria ciliaris = test: Test Example 4: herbicidal effect by soil treatment (symbol F); settings: application herbicide amount 320 g/ha
Outline: as §2

Setaria viridis [6] = test: Test Example 4: herbicidal effect by soil treatment (symbol G); settings: application herbicide amount 320 g/ha
Outline: as §2

Lolium multiflorum Lam. = test: Test Example 4: herbicidal effect by soil treatment (symbol K); settings: application herbicide amount 320 g/ha
Outline: as §2

Leptochloa chinensis = test: Test Example 3: herbicidal effect by foliage application, Wagner pot (symbol D); settings: application herbicide amount 320 g/ha
Outline: (§4)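 Plants sown in submerged alluvial soil (water depth 0.1–0.5 cm) in a 25–30 °C greenhouse and grown 14 days. An emulsion of the compound diluted in water to a set herbicide amount was sprayed uniformly on foliage. Effect on each plant scored 3 weeks after application.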

rice plant = test: Test Example 5: effect on crop by foliage application, plastic box (symbol b); settings: 320 g/ha, 3 weeks after application
Outline: as §1

Setaria viridis [7] = test: Test Example 5: herbicidal effect by foliage application, plastic box (symbol G); settings: 320 g/ha, 3 weeks after application
Outline: as §3

Veronica persica = test: Test Example 4: herbicidal effect by soil treatment (symbol R); settings: application herbicide amount 320 g/ha
Outline: as §2

Galium spurium = test: Test Example 4: herbicidal effect by soil treatment (symbol Q); settings: application herbicide amount 320 g/ha
Outline: as §2

[8] = test system: Echinochloa crus-galli var. crus-galli; test: Test Example 3: herbicidal effect by foliage application, Wagner pot (symbol H); settings: application herbicide amount 320 g/ha
Outline: as §4

Chenopodium album = test: Test Example 4: herbicidal effect by soil treatment (symbol O); settings: application herbicide amount 320 g/ha
Outline: as §2

Apera spica-venti [9] = test: Test Example 5: herbicidal effect by foliage application, plastic box (symbol L); settings: 320 g/ha, 3 weeks after application
Outline: as §3

Apera spica-venti [10] = test: Test Example 4: herbicidal effect by soil treatment (symbol L); settings: application herbicide amount 320 g/ha
Outline: as §2

[11] = test system: Echinochloa crus-galli var. crus-galli; test: Test Example 5: herbicidal effect by foliage application, plastic box (symbol H); settings: 320 g/ha, 3 weeks after application
Outline: as §3

Avena fatua = test: Test Example 5: herbicidal effect by foliage application, plastic box (symbol I); settings: 320 g/ha, 3 weeks after application
Outline: as §3

CON=C(C)CC1CC(OC(=O)CCCC(C)=O)=C(c2c(C)cc(-c3ccc(Cl)cc3)cc2C)C1=O (stereo not drawn) [6-080]
effect on crop b (directly sowed rice plant), grade 0-5 [1]: 5 (Herbicidal ratio of 90% or more (almost completely withered)) | g: rapeseed, effect on crop (criteria of Test Example 1) (rapeseed): 3 (Herbicidal ratio of 40% or higher and lower than 70%) | N: Amaranthus retroflexus, herbicidal effect grade (Amaranthus retroflexus): 1 (Herbicidal ratio of 5% or higher and lower than 20%) | f: beet, effect on crop (criteria of Test Example 1) (beet): 0 (Herbicidal ratio of 5% or lower (almost no effect)) | M: Abutilon theophrasti, herbicidal effect grade (Abutilon theophrasti [2]): 0 (Herbicidal ratio of 5% or lower (almost no effect)) | Effect grade on crop, a: transplanted rice plant (transplanted rice plant): 5 (Herbicidal ratio of 90% or more (almost completely withered)) | P: Stellaria media, herbicidal effect grade (Stellaria media [3]): 0 (Herbicidal ratio of 5% or lower (almost no effect)) | M: Abutilon theophrasti, herbicidal effect (criteria of Test Example 1) (Abutilon theophrasti [4]): 4 (Herbicidal ratio of 70% or higher and lower than 90%) | P: Stellaria media, herbicidal effect (criteria of Test Example 1) (Stellaria media [5]): 0 (Herbicidal ratio of 5% or lower (almost no effect)) | F: Digitaria ciliaris, herbicidal effect grade (Digitaria ciliaris): 5 (Herbicidal ratio of 90% or more (almost completely withered)) | G: Setaria viridis, herbicidal effect grade (Setaria viridis [6]): 5 (Herbicidal ratio of 90% or more (almost completely withered)) | K: Lolium multiflorum Lam., herbicidal effect grade (Lolium multiflorum Lam.): 5 (Herbicidal ratio of 90% or more (almost completely withered)) | herbicidal effect on D (Leptochloa chinensis), grade 0-5 (Leptochloa chinensis): 5 (Herbicidal ratio of 90% or more (almost completely withered)) | b: directly sowed rice plant, effect on crop (criteria of Test Example 1) (rice plant): 5 (Herbicidal ratio of 90% or more (almost completely withered)) | G: Setaria viridis, herbicidal effect (criteria of Test Example 1) (Setaria viridis [7]): 5 (Herbicidal ratio of 90% or more (almost completely withered)) | R: Veronica persica, herbicidal effect grade (Veronica persica): 0 (Herbicidal ratio of 5% or lower (almost no effect)) | Q: Galium spurium, herbicidal effect grade (Galium spurium): 0 (Herbicidal ratio of 5% or lower (almost no effect)) | herbicidal effect on H (Echinochloa crus-galli var. crus-galli), grade 0-5 [8]: 5 (Herbicidal ratio of 90% or more (almost completely withered)) | O: Chenopodium album, herbicidal effect grade (Chenopodium album): 0 (Herbicidal ratio of 5% or lower (almost no effect)) | L: Apera spica-venti, herbicidal effect (criteria of Test Example 1) (Apera spica-venti [9]): 5 (Herbicidal ratio of 90% or more (almost completely withered)) | L: Apera spica-venti, herbicidal effect grade (Apera spica-venti [10]): 5 (Herbicidal ratio of 90% or more (almost completely withered)) | H: Echinochloa crus-galli var. crus-galli, herbicidal effect (criteria of Test Example 1) [11]: 5 (Herbicidal ratio of 90% or more (almost completely withered)) | I: Avena fatua, herbicidal effect (criteria of Test Example 1) (Avena fatua): 5 (Herbicidal ratio of 90% or more (almost completely withered))

CON=C(C)CC1CC(OCOC(=O)c2ccccc2)=C(c2c(C)cc(-c3ccc(Cl)cc3)cc2C)C1=O (stereo not drawn) [6-083]
effect on crop b (directly sowed rice plant), grade 0-5 [1]: 5 (Herbicidal ratio of 90% or more (almost completely withered)) | g: rapeseed, effect on crop (criteria of Test Example 1) (rapeseed): 4 (Herbicidal ratio of 70% or higher and lower than 90%) | N: Amaranthus retroflexus, herbicidal effect grade (Amaranthus retroflexus): 0 (Herbicidal ratio of 5% or lower (almost no effect)) | f: beet, effect on crop (criteria of Test Example 1) (beet): 3 (Herbicidal ratio of 40% or higher and lower than 70%) | M: Abutilon theophrasti, herbicidal effect grade (Abutilon theophrasti [2]): 0 (Herbicidal ratio of 5% or lower (almost no effect)) | Effect grade on crop, a: transplanted rice plant (transplanted rice plant): 5 (Herbicidal ratio of 90% or more (almost completely withered)) | P: Stellaria media, herbicidal effect grade (Stellaria media [3]): 0 (Herbicidal ratio of 5% or lower (almost no effect)) | M: Abutilon theophrasti, herbicidal effect (criteria of Test Example 1) (Abutilon theophrasti [4]): 5 (Herbicidal ratio of 90% or more (almost completely withered)) | P: Stellaria media, herbicidal effect (criteria of Test Example 1) (Stellaria media [5]): 1 (Herbicidal ratio of 5% or higher and lower than 20%) | F: Digitaria ciliaris, herbicidal effect grade (Digitaria ciliaris): 5 (Herbicidal ratio of 90% or more (almost completely withered)) | G: Setaria viridis, herbicidal effect grade (Setaria viridis [6]): 5 (Herbicidal ratio of 90% or more (almost completely withered)) | K: Lolium multiflorum Lam., herbicidal effect grade (Lolium multiflorum Lam.): 1 (Herbicidal ratio of 5% or higher and lower than 20%) | herbicidal effect on D (Leptochloa chinensis), grade 0-5 (Leptochloa chinensis): 5 (Herbicidal ratio of 90% or more (almost completely withered)) | b: directly sowed rice plant, effect on crop (criteria of Test Example 1) (rice plant): 5 (Herbicidal ratio of 90% or more (almost completely withered)) | G: Setaria viridis, herbicidal effect (criteria of Test Example 1) (Setaria viridis [7]): 5 (Herbicidal ratio of 90% or more (almost completely withered)) | R: Veronica persica, herbicidal effect grade (Veronica persica): 3 (Herbicidal ratio of 40% or higher and lower than 70%) | Q: Galium spurium, herbicidal effect grade (Galium spurium): 0 (Herbicidal ratio of 5% or lower (almost no effect)) | herbicidal effect on H (Echinochloa crus-galli var. crus-galli), grade 0-5 [8]: 5 (Herbicidal ratio of 90% or more (almost completely withered)) | O: Chenopodium album, herbicidal effect grade (Chenopodium album): 0 (Herbicidal ratio of 5% or lower (almost no effect)) | L: Apera spica-venti, herbicidal effect (criteria of Test Example 1) (Apera spica-venti [9]): 5 (Herbicidal ratio of 90% or more (almost completely withered)) | L: Apera spica-venti, herbicidal effect grade (Apera spica-venti [10]): 5 (Herbicidal ratio of 90% or more (almost completely withered)) | H: Echinochloa crus-galli var. crus-galli, herbicidal effect (criteria of Test Example 1) [11]: 5 (Herbicidal ratio of 90% or more (almost completely withered)) | I: Avena fatua, herbicidal effect (criteria of Test Example 1) (Avena fatua): 5 (Herbicidal ratio of 90% or more (almost completely withered))

CON=C(C)CC1CC(O)=C(c2c(C)cc(-c3ccccc3)cc2OC)C1=O (stereo not drawn) [6-099]
effect on crop b (directly sowed rice plant), grade 0-5 [1]: 5 (Herbicidal ratio of 90% or more (almost completely withered)) | g: rapeseed, effect on crop (criteria of Test Example 1) (rapeseed): 5 (Herbicidal ratio of 90% or more (almost completely withered)) | Herbicidal effect grade, N: Amaranthus retroflexus (Amaranthus retroflexus): 5 (Herbicidal ratio of 90% or more (almost completely withered)) | f: beet, effect on crop (criteria of Test Example 1) (beet): 4 (Herbicidal ratio of 70% or higher and lower than 90%) | Herbicidal effect grade, M: Abutilon theophrasti (Abutilon theophrasti [2]): 3 (Herbicidal ratio of 40% or higher and lower than 70%) | Effect grade on crop, a: transplanted rice plant (transplanted rice plant): 5 (Herbicidal ratio of 90% or more (almost completely withered)) | Herbicidal effect grade, P: Stellaria media (Stellaria media [3]): 4 (Herbicidal ratio of 70% or higher and lower than 90%) | M: Abutilon theophrasti, herbicidal effect (criteria of Test Example 1) (Abutilon theophrasti [4]): 3 (Herbicidal ratio of 40% or higher and lower than 70%) | P: Stellaria media, herbicidal effect (criteria of Test Example 1) (Stellaria media [5]): 4 (Herbicidal ratio of 70% or higher and lower than 90%) | Herbicidal effect grade, F: Digitaria ciliaris (Digitaria ciliaris): 5 (Herbicidal ratio of 90% or more (almost completely withered)) | Herbicidal effect grade, G: Setaria viridis (Setaria viridis [6]): 5 (Herbicidal ratio of 90% or more (almost completely withered)) | Herbicidal effect grade, K: Lolium multiflorum Lam. (Lolium multiflorum Lam.): 5 (Herbicidal ratio of 90% or more (almost completely withered)) | herbicidal effect on D (Leptochloa chinensis), grade 0-5 (Leptochloa chinensis): 5 (Herbicidal ratio of 90% or more (almost completely withered)) | b: directly sowed rice plant, effect on crop (criteria of Test Example 1) (rice plant): 5 (Herbicidal ratio of 90% or more (almost completely withered)) | G: Setaria viridis, herbicidal effect (criteria of Test Example 1) (Setaria viridis [7]): 5 (Herbicidal ratio of 90% or more (almost completely withered)) | Herbicidal effect grade, R: Veronica persica (Veronica persica): 4 (Herbicidal ratio of 70% or higher and lower than 90%) | Herbicidal effect grade, Q: Galium spurium (Galium spurium): 3 (Herbicidal ratio of 40% or higher and lower than 70%) | herbicidal effect on H (Echinochloa crus-galli var. crus-galli), grade 0-5 [8]: 5 (Herbicidal ratio of 90% or more (almost completely withered)) | Herbicidal effect grade, O: Chenopodium album (Chenopodium album): 4 (Herbicidal ratio of 70% or higher and lower than 90%) | L: Apera spica-venti, herbicidal effect (criteria of Test Example 1) (Apera spica-venti [9]): 5 (Herbicidal ratio of 90% or more (almost completely withered)) | Herbicidal effect grade, L: Apera spica-venti (Apera spica-venti [10]): 5 (Herbicidal ratio of 90% or more (almost completely withered)) | H: Echinochloa crus-galli var. crus-galli, herbicidal effect (criteria of Test Example 1) [11]: 5 (Herbicidal ratio of 90% or more (almost completely withered)) | I: Avena fatua, herbicidal effect (criteria of Test Example 1) (Avena fatua): 5 (Herbicidal ratio of 90% or more (almost completely withered))

Source: patent US11000033B2, “Ketone or oxime compound, and herbicide” (NISSAN CHEMICAL CORPORATION, priority 2014, dated 2021)
